Results taken from PMC3493464, “Functional Analysis of Metabolic Channeling and Regulation in Lignin Biosynthesis: A Computational Approach” (PLoS Computational Biology, 2012).

Columns and labels:
[1] = target: T1, CCoAOMT (caffeoyl CoA O-methyltransferase) (Medicago sativa, UniProt Q40313); experiment: HPLC assay of feruloyl CoA formation; format: biochemical; conditions: putative activator; 2 µM caffeyl aldehyde, 20 µM caffeoyl CoA, 200 µM S-adenosyl methionine, 600 µM MgCl2, 2 mM DTT, 4% DMSO, pH 7.5, 30 °C
T1 construct: gene CCOMT; alfalfa cDNA in pET15b, His-tagged, expressed in E. coli Rosetta, Ni-NTA purified; tag removal not mentioned

[2] = target: T1, CCoAOMT (caffeoyl CoA O-methyltransferase); experiment: HPLC assay of feruloyl CoA formation; format: biochemical; conditions: 20, 30 or 40 µM caffeoyl CoA; 200 µM S-adenosyl methionine, 600 µM MgCl2, 2 mM DTT, pH 7.5, 30 °C

T1 sequence (Q40313 whole entry): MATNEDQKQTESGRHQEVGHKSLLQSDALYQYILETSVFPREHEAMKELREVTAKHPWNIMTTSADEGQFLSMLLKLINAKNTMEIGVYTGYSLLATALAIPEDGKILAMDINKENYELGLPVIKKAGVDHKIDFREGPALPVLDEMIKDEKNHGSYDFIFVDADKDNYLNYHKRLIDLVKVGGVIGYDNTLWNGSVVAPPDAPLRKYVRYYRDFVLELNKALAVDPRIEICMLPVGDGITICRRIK

% increase in activity at 2 μM [1] [%] | Compound | HPLC assay of feruloyl CoA formation [2]
16 | O=C/C=C/c1ccc(O)c(O)c1 [caffeyl aldehyde] | 
 | CC(C)(COP(=O)(O)OP(=O)(O)OC[C@H]1O[C@@H](n2cnc3c(N)ncnc32)[C@H](O)[C@@H]1OP(=O)(O)O)[C@@H](O)C(=O)NCCC(=O)NCCSC(=O)/C=C/c1ccc(O)c(O)c1 [caffeoyl CoA] | assayed the purified recombinant enzyme with caffeoyl CoA as substrate
